Measurements taken from US20240210412A1, “SULFONYL-TRIAZOLE COMPOUNDS USEFUL AS LIGANDS AND INHIBITORS OF PROSTAGLANDIN REDUCTASE 2” (University of Virginia Patent Foundation, priority 2021, published 2024).

How the values were obtained:
Assay in all cases: SILAC LC-MS ABPP
Assay type in all cases: cell-based
Conditions in all cases: 25 μM 2 h, live DM93 cells
O43776 = molecular target: T1, O43776 (Homo sapiens, UniProt O43776)
T1 construct: endogenous in cells; host or cells: DM93
Method in brief: (§1)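 Readout is SILAC heavy/light LC-MS/MS quantification of HHS-475-labelled tyrosine peptides, reflecting blockade of probe labelling by ligand. DM93 cells were pretreated with 25 μM SuTEx ligand (heavy) or DMSO (light) for 2 h at 37 °C, then probed with 100 μM HHS-475 for 2 h.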

O95757 = molecular target: T2, O95757 (Homo sapiens, UniProt O95757)
T2 construct: endogenous in cells; host or cells: DM93 cells (SILAC)
Method in brief: as §1

O43172 = molecular target: T3, O43172 (Homo sapiens, UniProt O43172)
T3 construct: endogenous in cells; host or cells: DM93
Method in brief: as §1

P13674 = molecular target: T4, P13674 (Homo sapiens, UniProt P13674)
T4 construct: endogenous in cells; host or cells: DM93 cells (SILAC)
Method in brief: as §1

Q9BXS6 = molecular target: T5, Q9BXS6 (Homo sapiens, UniProt Q9BXS6)
T5 construct: endogenous in cells; host or cells: DM93 cells (SILAC), treated live; soluble proteome analysed
Method in brief: as §1

P53621 = molecular target: T6, P53621 (Homo sapiens, UniProt P53621)
T6 construct: endogenous in cells; host or cells: DM93 cells (SILAC)
Method in brief: as §1

P23588 = molecular target: T7, P23588 (Homo sapiens, UniProt P23588)
T7 construct: Probe-modified proteins from the soluble fraction were conjugated to a desthiobiotin-azide tag; endogenous in cells; host or cells: DM93 (SILAC)
Method in brief: as §1

Q9NV35 = molecular target: T8, Q9NV35 (Homo sapiens, UniProt Q9NV35)
T8 construct: endogenous in cells; host or cells: DM93 cells (SILAC), treated live; soluble proteome analysed
Method in brief: as §1

O43660 = molecular target: T9, O43660 (Homo sapiens, UniProt O43660)
T9 construct: endogenous in cells; host or cells: DM93
Method in brief: as §1

Q9UFN0 = molecular target: T10, Q9UFN0 (Homo sapiens, UniProt Q9UFN0)
T10 construct: endogenous in cells; host or cells: DM93 cells (SILAC)
Method in brief: as §1

O60763 = molecular target: T11, O60763 (Homo sapiens, UniProt O60763)
T11 construct: endogenous in cells; host or cells: DM93
Method in brief: as §1

Q06203 = molecular target: T12, Q06203 (Homo sapiens, UniProt Q06203)
T12 construct: performing SuTEx compound screening directly in cells; endogenous in cells; host or cells: DM93 cells (SILAC)
Method in brief: as §1

Q12874 = molecular target: T13, Q12874 (Homo sapiens, UniProt Q12874)
T13 construct: performing SuTEx compound screening directly in cells; endogenous in cells; host or cells: DM93 cells (SILAC)
Method in brief: as §1

Q12965 = molecular target: T14, Q12965 (Homo sapiens, UniProt Q12965)
T14 construct: performing SuTEx compound screening directly in cells; endogenous in cells; host or cells: DM93 cells (SILAC)
Method in brief: as §1

P15559 = molecular target: T15, P15559 (Homo sapiens, UniProt P15559)
T15 construct: endogenous in cells; host or cells: DM93 cells (SILAC)
Method in brief: as §1

Q13535 = molecular target: T16, Q13535 (Homo sapiens, UniProt Q13535)
T16 construct: performing SuTEx compound screening directly in cells; endogenous in cells; host or cells: DM93 cells (SILAC), soluble fraction
Method in brief: as §1

P35269 = molecular target: T17, P35269 (Homo sapiens, UniProt P35269)
T17 construct: Probe-modified proteins from the soluble fraction were conjugated to a desthiobiotin-azide tag; endogenous in cells; host or cells: DM93 (SILAC)
Method in brief: as §1

P40939 = molecular target: T18, P40939 (Homo sapiens, UniProt P40939)
T18 construct: endogenous in cells; host or cells: DM93 cells (SILAC)
Method in brief: as §1

T3 sequence (O43172 whole entry): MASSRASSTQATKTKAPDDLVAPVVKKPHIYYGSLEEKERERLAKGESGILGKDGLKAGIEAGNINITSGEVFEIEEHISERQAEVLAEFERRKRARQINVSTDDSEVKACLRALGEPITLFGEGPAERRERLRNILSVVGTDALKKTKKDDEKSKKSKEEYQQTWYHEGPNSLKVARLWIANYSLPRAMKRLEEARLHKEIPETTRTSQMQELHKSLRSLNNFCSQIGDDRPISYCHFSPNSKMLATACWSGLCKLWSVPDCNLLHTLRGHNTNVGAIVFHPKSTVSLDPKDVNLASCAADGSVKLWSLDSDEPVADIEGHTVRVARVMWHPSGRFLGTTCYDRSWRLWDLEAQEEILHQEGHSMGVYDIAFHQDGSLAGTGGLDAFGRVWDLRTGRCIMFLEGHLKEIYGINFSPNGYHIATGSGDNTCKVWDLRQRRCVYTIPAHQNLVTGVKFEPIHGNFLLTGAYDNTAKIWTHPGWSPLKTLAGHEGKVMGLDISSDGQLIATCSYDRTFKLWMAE
T9 sequence (O43660 whole entry): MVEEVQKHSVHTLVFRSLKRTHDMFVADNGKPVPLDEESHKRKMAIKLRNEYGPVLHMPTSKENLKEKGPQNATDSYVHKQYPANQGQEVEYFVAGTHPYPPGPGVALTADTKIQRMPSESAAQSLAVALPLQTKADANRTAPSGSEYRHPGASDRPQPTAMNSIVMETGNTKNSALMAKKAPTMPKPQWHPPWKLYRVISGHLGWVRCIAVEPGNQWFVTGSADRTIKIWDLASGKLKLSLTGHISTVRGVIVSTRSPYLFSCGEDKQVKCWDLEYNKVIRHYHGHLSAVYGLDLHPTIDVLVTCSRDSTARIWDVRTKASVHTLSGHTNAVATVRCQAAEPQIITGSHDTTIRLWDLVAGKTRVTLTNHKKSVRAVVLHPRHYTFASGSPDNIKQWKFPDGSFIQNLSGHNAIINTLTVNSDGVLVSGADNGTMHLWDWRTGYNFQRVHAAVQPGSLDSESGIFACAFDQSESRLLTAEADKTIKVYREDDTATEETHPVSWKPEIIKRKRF
T10 sequence (Q9UFN0 whole entry): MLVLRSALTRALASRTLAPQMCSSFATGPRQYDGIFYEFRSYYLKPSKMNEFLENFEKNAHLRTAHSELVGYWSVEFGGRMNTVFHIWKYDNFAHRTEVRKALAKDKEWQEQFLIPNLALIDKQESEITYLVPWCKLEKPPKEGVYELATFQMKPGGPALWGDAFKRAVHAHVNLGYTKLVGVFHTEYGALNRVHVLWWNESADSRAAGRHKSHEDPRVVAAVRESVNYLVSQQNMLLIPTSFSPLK
T15 sequence (P15559 whole entry): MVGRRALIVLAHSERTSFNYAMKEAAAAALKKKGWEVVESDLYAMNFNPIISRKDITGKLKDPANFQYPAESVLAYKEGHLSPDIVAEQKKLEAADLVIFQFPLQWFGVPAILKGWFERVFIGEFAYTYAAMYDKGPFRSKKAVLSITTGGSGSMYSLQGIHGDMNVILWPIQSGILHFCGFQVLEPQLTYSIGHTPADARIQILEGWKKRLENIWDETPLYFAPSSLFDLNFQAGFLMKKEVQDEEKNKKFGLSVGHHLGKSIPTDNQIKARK
T18 sequence (P40939 37-763): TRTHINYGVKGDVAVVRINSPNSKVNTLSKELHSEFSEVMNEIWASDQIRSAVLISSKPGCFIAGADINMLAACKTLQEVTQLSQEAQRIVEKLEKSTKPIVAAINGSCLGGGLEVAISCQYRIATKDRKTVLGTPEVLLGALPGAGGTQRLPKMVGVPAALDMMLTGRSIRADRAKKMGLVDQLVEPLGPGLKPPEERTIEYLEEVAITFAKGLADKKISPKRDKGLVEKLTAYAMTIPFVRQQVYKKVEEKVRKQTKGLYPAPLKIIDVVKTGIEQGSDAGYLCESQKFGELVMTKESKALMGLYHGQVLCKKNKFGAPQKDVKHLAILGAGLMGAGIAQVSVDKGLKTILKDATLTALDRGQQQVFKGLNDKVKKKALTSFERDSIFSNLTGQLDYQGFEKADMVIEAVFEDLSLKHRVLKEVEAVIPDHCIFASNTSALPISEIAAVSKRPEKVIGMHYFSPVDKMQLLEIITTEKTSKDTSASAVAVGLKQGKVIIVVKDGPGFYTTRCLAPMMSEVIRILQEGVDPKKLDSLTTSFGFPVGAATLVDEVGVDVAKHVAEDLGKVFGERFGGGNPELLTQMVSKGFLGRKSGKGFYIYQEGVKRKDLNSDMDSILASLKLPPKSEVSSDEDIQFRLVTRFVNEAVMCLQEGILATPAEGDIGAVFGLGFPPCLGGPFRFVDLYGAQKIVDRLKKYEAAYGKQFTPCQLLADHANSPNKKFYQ
T18 sequence (P55084 34-474 partner): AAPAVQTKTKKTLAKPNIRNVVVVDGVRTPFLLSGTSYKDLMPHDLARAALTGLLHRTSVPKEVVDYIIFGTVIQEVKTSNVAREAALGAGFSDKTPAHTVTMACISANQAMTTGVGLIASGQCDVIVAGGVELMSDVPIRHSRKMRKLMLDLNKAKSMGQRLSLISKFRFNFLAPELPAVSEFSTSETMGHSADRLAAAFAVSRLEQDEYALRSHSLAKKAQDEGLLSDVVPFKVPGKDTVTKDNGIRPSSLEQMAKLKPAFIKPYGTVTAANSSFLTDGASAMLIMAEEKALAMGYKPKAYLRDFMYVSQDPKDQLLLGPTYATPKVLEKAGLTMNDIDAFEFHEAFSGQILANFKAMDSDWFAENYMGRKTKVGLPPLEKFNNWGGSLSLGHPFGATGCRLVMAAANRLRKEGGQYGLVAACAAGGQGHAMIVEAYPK
T14 sequence (Q12965 whole entry): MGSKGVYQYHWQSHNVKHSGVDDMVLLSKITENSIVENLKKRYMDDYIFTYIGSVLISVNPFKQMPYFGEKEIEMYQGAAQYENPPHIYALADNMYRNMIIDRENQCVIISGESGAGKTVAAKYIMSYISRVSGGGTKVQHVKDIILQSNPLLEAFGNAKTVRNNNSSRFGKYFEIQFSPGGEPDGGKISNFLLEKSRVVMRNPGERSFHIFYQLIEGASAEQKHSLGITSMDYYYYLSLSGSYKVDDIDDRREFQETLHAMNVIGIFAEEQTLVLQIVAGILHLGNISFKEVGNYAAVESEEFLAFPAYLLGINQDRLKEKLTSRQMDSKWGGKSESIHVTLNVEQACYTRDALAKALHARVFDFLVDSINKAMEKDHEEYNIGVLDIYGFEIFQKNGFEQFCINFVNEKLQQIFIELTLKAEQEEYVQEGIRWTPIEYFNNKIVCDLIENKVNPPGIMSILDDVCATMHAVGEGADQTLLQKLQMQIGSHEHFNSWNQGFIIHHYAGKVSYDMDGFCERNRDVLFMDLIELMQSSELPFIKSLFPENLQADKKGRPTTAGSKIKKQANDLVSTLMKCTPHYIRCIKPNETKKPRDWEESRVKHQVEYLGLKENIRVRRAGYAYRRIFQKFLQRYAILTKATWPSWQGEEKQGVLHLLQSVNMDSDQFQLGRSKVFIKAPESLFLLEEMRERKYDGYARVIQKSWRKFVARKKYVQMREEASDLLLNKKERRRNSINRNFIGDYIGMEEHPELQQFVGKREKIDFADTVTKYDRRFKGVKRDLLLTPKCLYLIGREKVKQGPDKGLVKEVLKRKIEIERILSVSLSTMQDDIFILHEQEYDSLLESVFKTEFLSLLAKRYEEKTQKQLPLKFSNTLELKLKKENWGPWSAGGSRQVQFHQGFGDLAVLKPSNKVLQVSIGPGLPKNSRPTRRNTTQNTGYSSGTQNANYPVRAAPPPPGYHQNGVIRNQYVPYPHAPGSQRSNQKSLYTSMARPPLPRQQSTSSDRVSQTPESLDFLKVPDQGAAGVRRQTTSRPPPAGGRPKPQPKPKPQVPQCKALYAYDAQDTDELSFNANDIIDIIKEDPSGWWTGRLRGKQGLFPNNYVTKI
T12 sequence (Q06203 12-517): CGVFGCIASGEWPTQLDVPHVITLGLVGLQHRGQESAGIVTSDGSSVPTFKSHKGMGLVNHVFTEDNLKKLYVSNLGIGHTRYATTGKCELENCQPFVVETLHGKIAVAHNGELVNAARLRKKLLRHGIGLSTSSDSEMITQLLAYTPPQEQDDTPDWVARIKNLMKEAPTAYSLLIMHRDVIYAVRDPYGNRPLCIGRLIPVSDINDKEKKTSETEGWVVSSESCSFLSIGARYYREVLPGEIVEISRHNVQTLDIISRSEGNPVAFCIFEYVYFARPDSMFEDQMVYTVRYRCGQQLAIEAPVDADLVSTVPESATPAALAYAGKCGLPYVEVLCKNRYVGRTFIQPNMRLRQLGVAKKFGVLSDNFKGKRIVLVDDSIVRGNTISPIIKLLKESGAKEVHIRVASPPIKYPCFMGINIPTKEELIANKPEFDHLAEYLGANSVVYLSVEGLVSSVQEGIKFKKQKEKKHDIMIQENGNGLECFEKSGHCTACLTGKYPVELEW
T7 sequence (P23588 whole entry): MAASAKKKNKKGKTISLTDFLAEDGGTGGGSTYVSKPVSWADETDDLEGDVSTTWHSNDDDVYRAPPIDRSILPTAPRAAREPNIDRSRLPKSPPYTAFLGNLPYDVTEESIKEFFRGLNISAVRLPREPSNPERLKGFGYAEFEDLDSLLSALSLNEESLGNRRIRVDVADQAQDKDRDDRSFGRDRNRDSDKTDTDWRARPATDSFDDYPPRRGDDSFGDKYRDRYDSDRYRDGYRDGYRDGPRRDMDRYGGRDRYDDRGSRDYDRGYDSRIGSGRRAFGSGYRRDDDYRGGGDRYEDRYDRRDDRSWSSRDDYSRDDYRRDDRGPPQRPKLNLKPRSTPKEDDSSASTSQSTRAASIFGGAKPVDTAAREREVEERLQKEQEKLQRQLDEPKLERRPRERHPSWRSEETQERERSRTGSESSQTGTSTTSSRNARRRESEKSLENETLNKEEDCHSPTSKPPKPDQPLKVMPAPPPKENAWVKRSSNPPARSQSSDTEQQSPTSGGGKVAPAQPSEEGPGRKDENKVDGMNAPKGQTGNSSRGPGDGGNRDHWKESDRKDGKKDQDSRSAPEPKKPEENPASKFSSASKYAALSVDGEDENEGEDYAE

## O=C(NC1CC1)c1ccc(S(=O)(=O)n2cncn2)cc1 [HHS-0101, 4-((1H-1,2,4-triazol-1-yl)sulfonyl)-N-cyclopropylbenzamide]
O43776
  liganded tyrosine site 45: HHS0101.Y (tyrosine sites that showed >80% reductions (SR >5) in probe labeling in cells treated with compounds (liganded sites))
O95757
  liganded tyrosine site 639: HHS0101.Y|HHS0301.Y|HHS0401.Y (tyrosine sites that showed >80% reductions (SR >5) in probe labeling in cells treated with compounds (liganded sites))
O43172
  liganded tyrosine site 31: HHS0101.Y|HHS0301.Y (tyrosine sites that showed >80% reductions (SR >5) in probe labeling in cells treated with compounds (liganded sites))
  liganded tyrosine site 32: HHS0101.Y|HHS0301.Y (tyrosine sites that showed >80% reductions (SR >5) in probe labeling in cells treated with compounds (liganded sites))
P13674
  liganded tyrosine site 250: HHS0101.Y (tyrosine sites that showed >80% reductions (SR >5) in probe labeling in cells treated with compounds (liganded sites))
Q9BXS6
  liganded tyrosine site 165: HHS0101.Y (tyrosine sites that showed >80% reductions (SR >5) in probe labeling in cells treated with compounds (liganded sites))
P53621
  liganded tyrosine site 628: HHS0101.Y|HHS0401.Y|HHS0701.Y (tyrosine sites that showed >80% reductions (SR >5) in probe labeling in cells treated with compounds (liganded sites))
P23588
  liganded tyrosine site 258: HHS0101.Y (tyrosine sites that showed >80% reductions (SR >5) in probe labeling in cells treated with compounds (liganded sites))

## O=C(NCC1CC1)c1ccc(S(=O)(=O)n2cncn2)cc1 [HHS-0201, 4-((1H-1,2,4-triazol-1-yl)sulfonyl)-N-(cyclopropylmethyl)benzamide]
Q9NV35
  liganded tyrosine site 92: HHS0201.Y (tyrosine sites that showed >80% reductions (SR >5) in probe labeling in cells treated with compounds (liganded sites))
O43660
  liganded tyrosine site 82: HHS0201.Y (tyrosine sites that showed >80% reductions (SR >5) in probe labeling in cells treated with compounds (liganded sites))
Q9UFN0
  liganded tyrosine site 42: HHS0201.Y|HHS0301.Y|HHS0401.Y|HHS0701.Y (tyrosine sites that showed >80% reductions (SR >5) in probe labeling in cells treated with compounds (liganded sites))
O60763
  liganded tyrosine site 718: HHS0201.Y (tyrosine sites that showed >80% reductions (SR >5) in probe labeling in cells treated with compounds (liganded sites))

## O=C(NC1CCCCC1)c1ccc(S(=O)(=O)n2cncn2)cc1 [HHS-0301, 4-((1H-1,2,4-triazol-1-yl)sulfonyl)-N-cyclohexylbenzamide]
Q06203
  liganded tyrosine site 451: HHS0301.Y (tyrosine sites that showed >80% reductions (SR >5) in probe labeling in cells treated with compounds (liganded sites))
Q12874
  liganded tyrosine site 139: HHS0301.Y (tyrosine sites that showed >80% reductions (SR >5) in probe labeling in cells treated with compounds (liganded sites))
Q12965
  liganded tyrosine site 9: HHS0301.Y (tyrosine sites that showed >80% reductions (SR >5) in probe labeling in cells treated with compounds (liganded sites))

## O=C(NCc1ccccc1)c1ccc(S(=O)(=O)n2cncn2)cc1 [HHS-0401, 4-((1H-1,2,4-triazol-1-yl)sulfonyl)-N-benzylbenzamide]
P15559
  liganded tyrosine site 76: HHS0401.Y|HHS0701.Y (tyrosine sites that showed >80% reductions (SR >5) in probe labeling in cells treated with compounds (liganded sites))

## O=C(c1ccc(S(=O)(=O)n2cncn2)cc1)N1CCC(c2ccccc2)CC1 [HHS-0701, (4-((1H-1,2,4-triazol-1-yl)sulfonyl)phenyl)(4-phenylpiperidin-1-yl)methanone]
Q13535
  liganded tyrosine site 2067: HHS0701.Y (tyrosine sites that showed >80% reductions (SR >5) in probe labeling in cells treated with compounds (liganded sites))
P35269
  liganded tyrosine site 124: HHS0701.Y (tyrosine sites that showed >80% reductions (SR >5) in probe labeling in cells treated with compounds (liganded sites))
P40939
  liganded tyrosine site 343: HHS0701.Y (tyrosine sites that showed >80% reductions (SR >5) in probe labeling in cells treated with compounds (liganded sites))
